Patent publication US20230324392A1, “METHODS AND COMPOSITIONS FOR TARGETING CYTOSOLIC DSDNA SIGNALING IN CHROMOSOMALLY UNSTABLE CANCERS” (MEMORIAL SLOAN KETTERING CANCER CENTER, priority 2020, published 2023)

Columns and labels:
4T1 cells [1] = assay: Ifnb1 and ISG expression in transfected 4T1 cells (qPCR); type: cell-based, mouse
Experimental: Quantitative PCR for STING inhibition study: RNA was extracted from cells with Trizol (Invitrogen, Carlsbad, CA, #15596026). cDNA was synthesized using the RNA to cDNA EcoDry™ Premix (Double Primed) kit (Takara #639549). Real-time PCR was performed to measure the relative mRNA expression levels of ISGs and the control GAPDH using Luna® Universal qPCR Master Mix (NEB, IPSWICH, MA, M3003L). The qPCR reaction and analysis were performed on a QuantStudio 6 platform (Life technology, Carlsbad, CA). The sequence of primers for Ccl5 is 5′-[…]-3′ and 5′-[…]-3′. The sequence of primers for Cxcl10 is 5′-[…]-3′ and 5′-[…]-3′, The sequence of primers for Isg15 is 5-A AAGAA-[…]-3′ and 5′-[…]-3′. The sequence for primers for Gapdh is 5′-[…]-3′ and 5′-[…]-3′.
Despite constitutive cGAS-STING activation, 4T1 cells had low baseline expression of Ifnb1 and other ISGs. […] Similar to our in vitro findings, control, cGAS-KO, and STING-KO tumors had low basal—and nearly undetectable—levels of IFN-β, when compared to those observed during active anti-tumor immune responses arising from immune checkpoint blockade of a responsive tumor model used as a reference control (FIG. 6D).

4T1 cells [2] = assay: Fluorescence-based indirect adenosine measurement after exogenous cGAMP; type: cell-based, mouse; settings: with and without EHNA
4T1 cells [3] = assay: Wound migration of control, Cgas-KO and Enpp1-KO 4T1 cells; type: cell-based, mouse; settings: cGAMP 5.5 μm
Experimental: Cellular growth and migration assays: Cellular proliferation rates were assessed by seeding 5×10^4 control or Enpp1-KO 4T1 cells in 6-well plates (3-4 replicates per condition). Cells were seeded in the regular RPMI medium with 10% Fetal bovine serum (FBS). About 48 hours before cells growing to form a 90% confluency monolayer, regular media were replaced with media containing indicated drugs. […] Fresh medium was changed every 12 hours. When reaching ˜90% confluency, cells were treated with RPMI medium containing 10 μm Mitomycin C for 1 hour. Wounds were formed using sterile P200 pipette tips. Images of the wounds were captured every 8 hours and were analyzed with a wound healing tool macro in ImageJ (dev.mri.cnrs.fr/projects/imagej-macros/wiki/Wound_Healing_Tool).
Through its ability to bind extracellular adenosine receptors in both tumor and immune cells, adenosine promotes cancer cell migration and is a potent immune suppressor, respectively (FIG. 12B).

CT26 cells = assay: Tail vein inoculation of CT26 cells in BALB/c mice, metastasis and survival; type: in vivo, mouse; settings: CT26, BALB/c, IP, vs vehicle
Experimental: Animal metastasis studies: Animal experiments were performed in accordance with protocols approved by the MSKCC Institutional Animal Care and Use Committee. […] There was no need to randomize animals. Investigators were not blinded to group allocation. For tail vein injections, 5×10^4 4T1, 2.5×10^4 B16F10, or 10^5 CT26 cells were injected into the tail vein of 6-7-week old BALB/c (4T1 and CT26) or C57BL/6 (B16F10) mice. Metastasis was primarily assessed through overall survival. Overall survival endpoint was met when the mice died or met the criteria for euthanasia under the IACUC protocol. Animals were censored when death was confirmed to have occurred due to metastasis-unrelated causes such as injury or death during injection, surgery, or anesthesia. Surface lung metastases were assessed at endpoint by direct visual examination after euthanasia at which points lungs were perfused and fixed in 4% paraformaldehyde (4T1 and B16F10 experiments) or stained using India-ink (CT26 experiments). […] H-151 was reconstituted in DMSO with concentration of 100 mM. Each mouse was injected intraperitoneally with 7.5 μL of H-151 stock solution in 200 μL of PBS with 0.1% Tween −80.

4T1 tumors = assay: Wild-type or cGAS-knockout orthotopic 4T1 tumors treated intratumorally with ADU-S100; type: in vivo, mouse; settings: ADU-S100 10 μg intratumorally, cGAS KO vs wild-type
Experimental: Methods. Briefly, wild-type or cGAS-knockout 4T1 tumors were orthotopically transplanted in the mammary fat pad of BALB/c immune competent mice. cGAS was knocked out using CRISPR-Cas9. The mice were treated intratumorally with PBS (vehicle) or the STING agonist, ADU-S100 (10 μg).

Poly(I.C)
induction of ISGs upon transfection (4T1 cells [1]): robust induction of ISGs

Nc1nc2c(ncn2[C@@H]2O[C@@H]3COP(=O)(O)O[C@H]4[C@@H](O)[C@H](n5cnc6c(N)ncnc65)O[C@@H]4COP(=O)(O)O[C@@H]2[C@@H]3O)c(=O)[nH]1 [cGAMP, 2′3′-cGAMP]
increase in ISG expression upon transfection (4T1 cells [1]): ~2 fold
induction in Ifnb1 upon transfection (4T1 cells [1]): no induction
H2O2 production after addition of exogenous cGAMP (4T1 cells [2]): concentration-dependent increase
rescue of cancer cell migration by exogenous cGAMP (4T1 cells [3]): rescued migration only in Cgas-KO but not Enpp1-KO tumor cells

CCc1ccc(NC(=O)Nc2c[nH]c3ccccc23)cc1 [H-151]
survival of tumor bearing mice (CT26 cells): significant prolongation in overall survival

Nc1ncnc2c1ncn2[C@@H]1O[C@@H]2COP(=O)([S-])O[C@@H]3[C@H](O)[C@@H](COP([O-])(=S)O[C@H]2[C@H]1O)O[C@H]3n1cnc2c(N)ncnc21.[Na+].[Na+] (stereo partly shown) [ADU-S100]
tumor sensitivity (tumor volume over time) (4T1 tumors): most sensitive condition
